According to PubChem BioAssay (NCI):
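Method: 48-hour compound exposure of cells in 96-well plates, five concentrations, linear interpolation of endpoints. TGI: total growth inhibition.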

Experiments:
Assay in all cases: DTP human tumour cell line panel, 48 h
786-0 renal = test system: 786-0 renal
A498 renal = test system: A498 renal
A549 NSCLC = test system: A549 NSCLC
ACHN renal = test system: ACHN renal
CAKI-1 renal = test system: CAKI-1 renal
CCRF-CEM leukemia = test system: CCRF-CEM leukemia
COLO 205 colon = test system: COLO 205 colon
DLD-1 colon = test system: DLD-1 colon
DMS 273 small cell lung = test system: DMS 273 small cell lung
EKVX NSCLC = test system: EKVX NSCLC
HCT-116 colon = test system: HCT-116 colon
HCT-15 colon = test system: HCT-15 colon
HL-60(TB) leukemia = test system: HL-60(TB) leukemia
HOP-62 NSCLC = test system: HOP-62 NSCLC
HOP-92 NSCLC = test system: HOP-92 NSCLC
HT29 colon = test system: HT29 colon
IGROV1 ovarian = test system: IGROV1 ovarian
K-562 leukemia = test system: K-562 leukemia
KM20L2 colon = test system: KM20L2 colon
LOX IMVI melanoma = test system: LOX IMVI melanoma
LXFL 529 NSCLC = test system: LXFL 529 NSCLC
M14 melanoma = test system: M14 melanoma
MALME-3M melanoma = test system: MALME-3M melanoma
NCI-H226 lung = test system: NCI-H226 lung
NCI-H23 lung = test system: NCI-H23 lung
NCI-H460 lung = test system: NCI-H460 lung
NCI-H522 lung = test system: NCI-H522 lung
OVCAR-3 ovarian = test system: OVCAR-3 ovarian
OVCAR-4 ovarian = test system: OVCAR-4 ovarian
OVCAR-5 ovarian = test system: OVCAR-5 ovarian
OVCAR-8 ovarian = test system: OVCAR-8 ovarian
RXF 393 renal = test system: RXF 393 renal
SF-268 CNS = test system: SF-268 CNS
SF-295 CNS = test system: SF-295 CNS
SF-539 CNS = test system: SF-539 CNS
SK-MEL-2 melanoma = test system: SK-MEL-2 melanoma
SK-MEL-28 melanoma = test system: SK-MEL-28 melanoma
SK-MEL-5 melanoma = test system: SK-MEL-5 melanoma
SK-OV-3 ovarian = test system: SK-OV-3 ovarian
SN12C renal = test system: SN12C renal
SNB-19 CNS = test system: SNB-19 CNS
SNB-75 CNS = test system: SNB-75 CNS
SW-620 colon = test system: SW-620 colon
TK-10 renal = test system: TK-10 renal
U251 CNS = test system: U251 CNS
UACC-257 melanoma = test system: UACC-257 melanoma
UACC-62 melanoma = test system: UACC-62 melanoma
UO-31 renal = test system: UO-31 renal
XF 498 CNS = test system: XF 498 CNS
DMS 114 small cell lung = test system: DMS 114 small cell lung
HCC-2998 colon = test system: HCC-2998 colon
HOP-18 NSCLC = test system: HOP-18 NSCLC
KM12 colon = test system: KM12 colon
M19-MEL melanoma = test system: M19-MEL melanoma
MOLT-4 leukemia = test system: MOLT-4 leukemia
RPMI-8226 leukemia = test system: RPMI-8226 leukemia
SNB-78 CNS = test system: SNB-78 CNS
SR leukemia = test system: SR leukemia
BT-549 breast = test system: BT-549 breast
DU-145 prostate = test system: DU-145 prostate
HS 578T breast = test system: HS 578T breast
MCF7 breast = test system: MCF7 breast
MDA-MB-231 breast = test system: MDA-MB-231 breast
MDA-MB-435 = test system: MDA-MB-435
MDA-N = test system: MDA-N
NCI/ADR-RES ovarian = test system: NCI/ADR-RES ovarian
PC-3 prostate = test system: PC-3 prostate
T-47D breast = test system: T-47D breast

Measured: TGI

CC(=O)Nc1ccc(C(=O)NN2C(=O)C(Cl)C2c2ccccc2O)cc1 (configuration not stated)
41.6 µM: HOP-62 NSCLC
61 µM: RXF 393 renal
48.9 µM: LOX IMVI melanoma
78.3 µM: NCI-H23 lung
90.3 µM: OVCAR-3 ovarian
78.9 µM: SNB-75 CNS
not listed: DMS 114 small cell lung | HCC-2998 colon | HOP-18 NSCLC | KM12 colon | M19-MEL melanoma | MOLT-4 leukemia | RPMI-8226 leukemia | SNB-78 CNS | SR leukemia | BT-549 breast | DU-145 prostate | HS 578T breast | MCF7 breast | MDA-MB-231 breast | MDA-MB-435 | MDA-N | NCI/ADR-RES ovarian | PC-3 prostate | T-47D breast
> 100 µM: all other assays above

COc1cc([C@@H]2c3cc4c(cc3[C@@H](NC(=O)c3cccc(F)c3)C3COC(=O)[C@@H]32)OCO4)cc(OC)c1O (some centres not stated)
22.1 µM: COLO 205 colon
1.06 µM: MOLT-4 leukemia
1.94 µM: HOP-62 NSCLC | U251 CNS
5.24 µM: SNB-75 CNS
1.85 µM: ACHN renal
26.8 µM: SF-295 CNS
3.7 µM: UACC-62 melanoma
56.5 µM: SK-MEL-28 melanoma
11.3 µM: DMS 273 small cell lung | HCC-2998 colon
12.7 µM: SK-MEL-5 melanoma
2.26 µM: 786-0 renal
6.89 µM: KM20L2 colon
5.78 µM: SK-OV-3 ovarian
89.6 µM: HOP-92 NSCLC
41.4 µM: M19-MEL melanoma
22.5 µM: CAKI-1 renal
7.52 µM: NCI-H460 lung
14.2 µM: SNB-19 CNS
2.3 µM: HL-60(TB) leukemia
1.7 µM: SF-539 CNS
7.09 µM: HCT-15 colon
7.49 µM: EKVX NSCLC
33 µM: OVCAR-5 ovarian
6.72 µM: M14 melanoma
3.97 µM: NCI-H522 lung
37.5 µM: RXF 393 renal
11.2 µM: UO-31 renal
58.1 µM: UACC-257 melanoma
5.85 µM: RPMI-8226 leukemia
> 100 µM: CCRF-CEM leukemia | HOP-18 NSCLC | K-562 leukemia | LXFL 529 NSCLC | OVCAR-4 ovarian | SF-268 CNS | SNB-78 CNS
17.1 µM: TK-10 renal
2.62 µM: A549 NSCLC
18 µM: SK-MEL-2 melanoma
13.8 µM: HCT-116 colon
15.1 µM: LOX IMVI melanoma
17.4 µM: OVCAR-3 ovarian
2.2 µM: NCI-H226 lung
16.2 µM: SW-620 colon
16.1 µM: OVCAR-8 ovarian
7.2 µM: KM12 colon
10.6 µM: IGROV1 ovarian
15.4 µM: HT29 colon
5.2 µM: DMS 114 small cell lung
2.73 µM: SN12C renal
7.83 µM: MALME-3M melanoma
25.4 µM: DLD-1 colon
3.18 µM: NCI-H23 lung
4.91 µM: A498 renal

Cn1ncnc1CCc1ccccc1
not listed: DLD-1 colon | EKVX NSCLC | SNB-19 CNS | XF 498 CNS | HCC-2998 colon | BT-549 breast | DU-145 prostate | HS 578T breast | MCF7 breast | MDA-MB-231 breast | MDA-MB-435 | MDA-N | NCI/ADR-RES ovarian | PC-3 prostate | T-47D breast
> 100 µM: all other assays above

O=[N+]([O-])/C(C(Cl)=C(Cl)Cl)=C(/Sc1ccccc1)N1CCCCC1
99.1 µM: UACC-257 melanoma
> 88.1 µM: SK-MEL-5 melanoma
> 26.8 µM: HL-60(TB) leukemia
> 26.4 µM: SR leukemia
not listed: DLD-1 colon | DMS 273 small cell lung | KM20L2 colon | LXFL 529 NSCLC | XF 498 CNS | DMS 114 small cell lung | HOP-18 NSCLC | M19-MEL melanoma | SNB-78 CNS
> 100 µM: all other assays above
